Target: T1, VLA-4 (α4β1 integrin) (Homo sapiens, UniProt P05556+P13612)
T1 construct: Ramos cells bearing cell-surface VLA-4; endogenous in cells; host or cells: Ramos cells
Experiment: Ramos (VLA-4)/VCAM-1 Cell-Based Screening Assay (cell adhesion)
Details: Calcein-AM labeled Ramos cells adhering to immobilized recombinant human VCAM-1
Description: Ramos (VLA-4)/VCAM-1 Cell-Based Screening Assay Protocol
Soluble recombinant human VCAM-1 (mixture of 5- and 7-Ig domain) was purified from CHO cell culture media by inmmunoaffinity chromatography and maintained in a solution containing 0.1 M Tris-glycine (pH 7.5), 0.1 M NaCl, 5 mM EDTA, 1 mM PMSF, […] NaN3 and 10 μg/mL leupeptin. Calcein-AM was purchased from Molecular Probes Inc.
VLA-4 (α4β1 integrin) antagonist activity, defined as ability to compete with cell-surface VLA-4 for binding to immobilized VCAM-1, was quantitated using a Ramos-VCAM-1 cell adhesion assay. Ramos cells bearing cell-surface VLA-4, were labeled with a fluorescent dye (Calcein-AM) and allowed to bind VCAM-1 in the presence or absence of test compounds. A reduction in fluorescence intensity associated with adherent cells (% inhibition) reflected competitive inhibition of VLA-4 mediated cell adhesion by the test compound.
Initially, this entailed coating 96 well plates (Nunc Maxisorp) with recombinant human VCAM-1 (100 ng in 100 μl PBS), sealing each plate and allowing the plates to stand at 4° C. for ≈18 hr. The VCAM-coated plates were subsequently washed twice with 0.05% Tween-20 in PBS, and then blocked for 1 hr (room temperature) with 200 μl of Blocking Buffer (1% BSA/0.02% thimerosal) to reduce non-specific binding. Following the incubation with Blocking Buffer, plates were inverted, blotted and the remaining buffer aspirated. Each plate was then washed with 300 μl PBS, inverted and the remaining PBS aspirated.
Test compounds were dissolved in 100% DMSO and then diluted 1:25 in VCAM Cell Adhesion Assay Buffer (4 mM CaCl2, 4 mM MgCl2 in 50 mM TRIS-HCl, pH 7.5) (final DMSO=4%). A series of eight 1:4 dilutions were performed for each compound (general concentration range of 1 nM-12,500 nM). 100 μl/well of each dilution was added to the VCAM-coated plates, followed by 100 μl of Ramos cells (200,000 cells/well in 1% BSA/PBS). Plates containing test compounds and Ramos cells were allowed to incubate for 45 min at room temperature, after which 165 μl/well PBS was added. Plates were inverted to remove non-adherent cells, blotted and 300 μl/well PBS added. Plates were again inverted, blotted and the remaining buffer gently aspirated. 100 μl Lysis Buffer (0.1% SDS in 50 mM TRIS-HCl, pH 8.5) was added to each well and agitated for 2 min on a rotary shaking platform. The plates were then read for fluorescence intensity on a Cytofluor 2300 (Millipore) fluorecence measurement system (excitation=485 nm, emission=530 nm). The results are shown in the following Table II, where (A=IC50<100 nM, B=IC50<10000 nM): […]

T1 sequence (P13612 34-1032): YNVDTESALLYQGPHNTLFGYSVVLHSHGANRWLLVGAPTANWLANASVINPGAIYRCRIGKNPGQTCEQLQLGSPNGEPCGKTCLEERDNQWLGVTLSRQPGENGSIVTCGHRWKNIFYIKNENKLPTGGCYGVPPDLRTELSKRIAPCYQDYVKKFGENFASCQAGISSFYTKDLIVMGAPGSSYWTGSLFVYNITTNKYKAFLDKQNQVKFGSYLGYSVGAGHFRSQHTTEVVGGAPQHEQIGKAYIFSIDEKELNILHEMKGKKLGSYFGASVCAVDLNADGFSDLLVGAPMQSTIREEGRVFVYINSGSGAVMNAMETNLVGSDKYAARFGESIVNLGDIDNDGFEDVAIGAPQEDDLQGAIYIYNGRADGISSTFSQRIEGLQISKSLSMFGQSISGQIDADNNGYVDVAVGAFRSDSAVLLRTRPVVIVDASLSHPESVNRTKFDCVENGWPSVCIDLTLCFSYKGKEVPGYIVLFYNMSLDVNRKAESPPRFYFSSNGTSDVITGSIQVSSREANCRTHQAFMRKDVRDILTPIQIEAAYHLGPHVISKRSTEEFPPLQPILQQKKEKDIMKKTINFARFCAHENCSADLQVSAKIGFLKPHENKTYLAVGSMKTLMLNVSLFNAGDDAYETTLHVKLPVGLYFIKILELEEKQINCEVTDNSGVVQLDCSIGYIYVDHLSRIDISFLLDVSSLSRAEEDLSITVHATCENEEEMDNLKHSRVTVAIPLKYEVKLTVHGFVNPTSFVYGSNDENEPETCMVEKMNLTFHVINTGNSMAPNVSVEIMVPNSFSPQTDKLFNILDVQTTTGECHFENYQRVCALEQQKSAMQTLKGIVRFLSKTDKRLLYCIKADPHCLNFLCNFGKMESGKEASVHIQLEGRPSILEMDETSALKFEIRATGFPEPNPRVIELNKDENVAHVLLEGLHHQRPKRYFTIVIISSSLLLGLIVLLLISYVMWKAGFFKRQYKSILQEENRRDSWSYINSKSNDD
T1 sequence (P05556 21-798): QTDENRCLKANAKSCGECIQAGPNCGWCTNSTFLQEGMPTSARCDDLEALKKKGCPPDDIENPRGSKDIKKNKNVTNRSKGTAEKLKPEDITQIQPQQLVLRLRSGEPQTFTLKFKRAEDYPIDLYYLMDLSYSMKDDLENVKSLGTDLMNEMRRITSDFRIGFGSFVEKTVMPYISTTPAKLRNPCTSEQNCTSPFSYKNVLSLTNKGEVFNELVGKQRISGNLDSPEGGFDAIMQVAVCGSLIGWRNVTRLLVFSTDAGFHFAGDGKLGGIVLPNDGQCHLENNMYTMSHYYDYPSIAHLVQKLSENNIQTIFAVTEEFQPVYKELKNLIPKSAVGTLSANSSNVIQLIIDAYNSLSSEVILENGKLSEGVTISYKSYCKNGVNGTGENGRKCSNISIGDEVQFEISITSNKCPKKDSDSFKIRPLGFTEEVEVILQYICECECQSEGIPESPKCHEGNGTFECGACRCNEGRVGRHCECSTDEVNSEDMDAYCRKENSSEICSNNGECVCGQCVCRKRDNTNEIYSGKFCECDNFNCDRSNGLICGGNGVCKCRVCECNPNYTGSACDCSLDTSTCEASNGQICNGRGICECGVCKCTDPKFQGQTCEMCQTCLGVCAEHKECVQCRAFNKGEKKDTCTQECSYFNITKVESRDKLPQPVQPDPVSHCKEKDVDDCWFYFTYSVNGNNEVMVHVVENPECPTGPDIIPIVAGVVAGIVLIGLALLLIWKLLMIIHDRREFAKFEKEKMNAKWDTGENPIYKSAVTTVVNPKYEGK

Row | SMILES | IC50 [nM]
1 | Cc1c(-c2ccc(C[C@H](NC(=O)c3c(Cl)cccc3Cl)C(=O)O)cc2)c(=O)n(C)c(=O)n1C [Example 6, N-[(2,6-dichlorophenyl)carbonyl]-4-(1,3,6-trimethyl-2,4-dioxo-5-pyrimidinyl)-L-phenylalanine] | < 100
2 | COCCC1(C(=O)N[C@@H](Cc2ccc(-c3c(C)n(C)c(=O)n(C)c3=O)cc2)C(=O)O)CCCC1 [Example 7, N-[[1-(2-methoxyethyl)cyclopentyl]carbonyl]-4-(1,3,6-trimethyl-2,4-dioxo-5-pyrimidinyl)-L-phenylalanine] | < 100
3 | Cc1cccc(Br)c1C(=O)N[C@@H](Cc1ccc(-c2c(C)n(C)c(=O)n(C)c2=O)cc1)C(=O)O [Example 8, N-[(2-bromo-6-methylphenyl)carbonyl]-4-(1,3,6-trimethyl-2,4-dioxo-5-pyrimidinyl)-L-phenylalanine] | < 100
4 | Cc1cccc(Cl)c1C(=O)N[C@@H](Cc1ccc(-c2c(C)n(C)c(=O)n(C)c2=O)cc1)C(=O)O [Example 9, N-[(2-chloro-6-methylphenyl)carbonyl]-4-(1,3,6-trimethyl-2,4-dioxo-5-pyrimidinyl)-L-phenylalanine] | < 100
5 | CCc1cccc(C)c1C(=O)N[C@@H](Cc1ccc(-c2c(C)n(C)c(=O)n(C)c2=O)cc1)C(=O)O [Example 10, N-[(2-ethyl-6-methylphenyl)carbonyl]-4-(1,3,6-trimethyl-2,4-dioxo-5-pyrimidinyl)-L-phenylalanine] | < 100
6 | Cc1cccc(C(C)C)c1C(=O)N[C@@H](Cc1ccc(-c2c(C)n(C)c(=O)n(C)c2=O)cc1)C(=O)O [Example 11, N-[[2-(2-methylethyl)-6-methylphenyl]carbonyl]-4-(1,3,6-trimethyl-2,4-dioxo-5-pyrimidinyl)-L-phenylalanine] | < 100
7 | Cc1c(-c2ccc(C[C@H](NC(=O)c3c(F)cccc3F)C(=O)O)cc2)c(=O)n(C)c(=O)n1C [Example 12, N-[(2,6-difluorophenyl)carbonyl]-4-(1,3,6-trimethyl-2,4-dioxo-5-pyrimidinyl)-L-phenylalanine] | < 100
8 | Cc1c(-c2ccc(C[C@H](NC(=O)c3c(F)cccc3C(F)(F)F)C(=O)O)cc2)c(=O)n(C)c(=O)n1C [Example 13, N-[(2-fluoro-6-(trifluoromethyl)phenyl)carbonyl]-4-(1,3,6-trimethyl-2,4-dioxo-5-pyrimidinyl)-L-phenylalanine] | < 100
9 | Cc1c(-c2ccc(C[C@H](NC(=O)c3c(C(C)C)cccc3C(C)C)C(=O)O)cc2)c(=O)n(C)c(=O)n1C [Example 14, N-[[2,6-di-(2-methylethyl)phenyl]carbonyl]-4-(1,3,6-trimethyl-2,4-dioxo-5-pyrimidinyl)-L-phenylalanine] | < 10000
10 | CCc1cccc(Cl)c1C(=O)N[C@@H](Cc1ccc(-c2c(C)n(C)c(=O)n(C)c2=O)cc1)C(=O)O [Example 15, N-[(2-chloro-6-ethylphenyl)carbonyl]-4-(1,3,6-trimethyl-2,4-dioxo-5-pyrimidinyl)-L-phenylalanine] | < 100
11 | CCCc1cccc(Cl)c1C(=O)N[C@@H](Cc1ccc(-c2c(C)n(C)c(=O)n(C)c2=O)cc1)C(=O)O [Example 16, N-[(2-chloro-6-propylphenyl)carbonyl]-4-(1,3,6-trimethyl-2,4-dioxo-5-pyrimidinyl)-L-phenylalanine] | < 100
12 | CCn1c(C)c(-c2ccc(C[C@H](NC(=O)c3c(Cl)cccc3Cl)C(=O)O)cc2)c(=O)n(CC)c1=O [Example 18, N-[(2,6-dichlorophenyl)carbonyl]-4-(1,3-diethyl-6-methyl-2,4-dioxo-5-pyrimidinyl)-L-phenylalanine] | < 100
13 | CCn1c(C)c(-c2ccc(C[C@H](NC(=O)c3c(C)cccc3Cl)C(=O)O)cc2)c(=O)n(CC)c1=O [Example 19, N-[(2-chloro-6-methylphenyl)carbonyl]-4-(1,3-diethyl-6-methyl-2,4-dioxo-5-pyrimidinyl)-L-phenylalanine] | < 100
14 | CCn1c(C)c(-c2ccc(C[C@H](NC(=O)C3(CCOC)CCCC3)C(=O)O)cc2)c(=O)n(CC)c1=O [Example 20, 4-(1,3-diethyl-6-methyl-2,4-dioxo-5-pyrimidinyl)-N-[[1-(2-methoxyethyl)cyclopentyl]carbonyl]-L-phenylalanine] | < 100
15 | Cn1c(C(F)(F)F)c(-c2ccc(C[C@H](NC(=O)c3c(Cl)cccc3Cl)C(=O)O)cc2)c(=O)n(C)c1=O [Example 21, N-[1-(2,6-dichlorophenyl)carbonyl]-4-(1,3-dimethyl-2,4-dioxo-6-(trifluoromethyl)-5-pyrimidinyl)-L-phenylalanine] | < 100
16 | Cc1cccc(Cl)c1C(=O)N[C@@H](Cc1ccc(-c2c(C(F)(F)F)n(C)c(=O)n(C)c2=O)cc1)C(=O)O [Example 22, N-[(2-chloro-6-methylphenyl)carbonyl]-4-[1,3-dimethyl-2,4-dioxo-6-(trifluoromethyl)-5-pyrimidinyl]-L-phenylalanine] | < 100
17 | Cn1c(C(F)(F)F)c(-c2ccc(C[C@H](NC(=O)c3c(F)cccc3C(F)(F)F)C(=O)O)cc2)c(=O)n(C)c1=O [Example 23, N-[[2-fluoro-6-(trifluoromethyl)phenyl]carbonyl]-4-(1,3-dimethyl-2,4-dioxo-6-(trifluoromethyl)-5-pyrimidinyl)-L-phenylalanine] | < 100
18 | Cc1cc(C[C@H](NC(=O)c2c(C)cccc2Cl)C(=O)O)ccc1-c1cn(C)c(=O)n(C)c1=O [Example 24, N-[(2-chloro-6-methylphenyl)carbonyl]-4-(1,3-dimethyl-2,4-dioxo-5-pyrimidinyl)-3-methyl-L-phenylalanine] | < 10000
19 | Cc1cc(C[C@H](NC(=O)c2c(Cl)cccc2Cl)C(=O)O)ccc1-c1cn(C)c(=O)n(C)c1=O [Example 25, N-[(2,6-dichlorophenyl)carbonyl]-4-(1,3-dimethyl-2,4-dioxo-5-pyrimidinyl)-3-methyl-L-phenylalanine] | < 100
20 | Cc1cc(C[C@H](NC(=O)c2c(Cl)cccc2Cl)C(=O)O)ccc1-c1c(C)n(C)c(=O)n(C)c1=O [Example 26, N-[(2,6-dichlorophenyl)carbonyl]-4-(1,3,6-trimethyl-2,4-dioxo-5-pyrimidinyl)-3-methyl-L-phenylalanine] | < 10000
21 | CCOC(=O)[C@H](Cc1ccc(-c2c(C)n(C)c(=O)n(C)c2=O)cc1)NC(=O)c1c(Cl)cccc1Cl [Example 27, N-[(2,6-dichlorophenyl)carbonyl]-4-(1,3,6-trimethyl-2,4-dioxo-5-pyrimidinyl)-L-phenylalanine ethyl ester] | < 10000
